Patent publication EP4818172A1, “ASCORBIC ACID DERIVATIVES AND COSMETIC CONTAINING SAME” (Seiwa Kasei Co., Ltd., priority 2023, dated 2025)

Key:
[1] = tested on: Normal human epidermal keratinocytes; experiment: Antioxidant effect: ROS production inhibition after H2O2 (DCFHDA probe); format: cell-based; conditions: sample at 10 mM or less, 24 hours, then 0.2 mM H2O2 for 2 hours, N=4
Description: Normal human epidermal keratinocytes were seeded onto a 96-well plate using KG2 medium at a cell density of 2.0 × 10^4 cells/well. After 24 hours of pre-incubation, samples adjusted to a predetermined concentration in KG2 medium were added to each well. After 24 hours of incubation, the medium was removed, followed by washing with HBSS(-) and the incorporation of the ROS-reactive fluorescent probe DCFHDA for 30 minutes. The cells were again washed with HBSS(-), treated with 0.2 mM H2O2, and incubated for 2 hours. The fluorescence intensity was measured, and the amount of ROS produced per unit protein was calculated by dividing the fluorescence intensity by the amount of protein quantified by the BCA method, resulting in an analytical value of 1. Furthermore, the amount of ROS production calculated without adding the sample adjusted to a predetermined concentration using the above test method was set to analytical value 2; and the amount of ROS production calculated without adding the sample or 0.2 mM H2O2 was set to analytical value 3.
ROS production inhibition rate (%) was calculated using the following formula. The higher the ROS production inhibition rate, the greater the antioxidant effect can be evaluated to be.
ROS production inhibition rate (%) = [(analysis value 2) - (analysis value 1)] / [(analysis value 2) - (analysis value 3)] × 100
The ROS production inhibition rate when the sample was measured at a concentration of 10 mM or less was evaluated as follows. Note that the measurement was performed in N=4. • <20%: + • 20-40%: ++ • 40%<: +++ [Table 21]

[2] = tested on: Normal human dermal fibroblasts; experiment: Collagen production promoting effect (ELISA of free collagen in supernatant); format: cell-based; conditions: sample at 10 mM or less, cultured 48 hours, % of control group (100%), N=3
Description: Normal human dermal fibroblasts were prepared in D-MEM containing 5% (v/v) fetal bovine serum to a cell density of 2.5 × 10^4 cell s /well, and then pre-incubated for 24 hours on a 96-well plate. After removing the medium, samples prepared to a predetermined concentration in D-MEM containing 5% (v/v) fetal bovine serum were added to each well and cultured for 48 hours. After the culture was completed, the amount of free collagen in the supernatant was quantified by ELISA. Measurements were performed in triplicate (N=3).
The amount of collagen produced when the sample was measured at a concentration of 10 mM or less was compared with that of the control group, and the results (% values when the control group was set to 100%) are shown in Table 17 based on the following criteria. • <100%: ± • 100-140%: + • 140%<: ++ [Table 17]

[3] = Stability test -2: odor and coloration of cream stored at 50°C; format: physicochemical; conditions: Test Example 2, cream stored at 50°C, total score of 10 panelists
Description: For each of the samples of Synthesis Examples 1 to 6, 1% aqueous solutions were adjusted to pH 3, 5, 7, 8, and 9 with a dilute potassium hydroxide aqueous solution, and then placed in 50 mL screw tubes and • 2: Color changes compared to immediately after preparation. • 1: Strongly colored compared to immediately after preparation. Based on the results of the above evaluation, the following classification was made: • ○: Total score of 10 panelists is 25 or more • △: Total score of 10 panelists is 16-24 • ×: The total score of 10 panelists is 15 or less [Table 10]
(§1) For each of the samples of Synthesis Examples 9 to 32, (a) and (b) shown in Table 12 were each heated and mixed. After cooling, (c) shown in Table 12 was added to prepare a cream with a pH of 7 or 9. The sample was stored at 50°C for 4 weeks, and the residual rate was determined in the same manner as in Test Example 1 and evaluated according to the criteria described below. The odor and coloration were also evaluated according to the same method and criteria as in Test Example 1. The results regarding the residual rate are shown in Tables 13 and 14, and the results regarding the odor and coloration are shown in Tables 15 and 16.

[4] = Stability test -2: residual rate in cream of pH 7 or 9 stored at 50°C; format: physicochemical; conditions: cream with 4.0 W/W% derivative
Description: as §1
• ⊚: 95% or more • ○: 85% or more, less than 95% • ×: Less than 85% [Table 12]

[5] = tested on: Normal human dermal fibroblasts (NHDF); experiment: Hyaluronic acid production promoting effect (ELISA of supernatant); format: cell-based; conditions: sample at 10 mM or less in serum-free D-MEM, cultured 48 hours, % of control group (100%), N=3
Outline: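 NHDF pre-incubated 24 h in D-MEM/5% FBS, then exposed to samples (10 mM or less) in serum-free D-MEM for 48 h. Supernatant hyaluronic acid measured by ELISA, triplicate. Output expressed as % of untreated control (control = 100%), graded ±/+/++ at <100%, 100-120%, >120%.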

Row | Structure (SMILES) | Antioxidant effect (ROS production inhibition rate) [1] | Collagen production-promoting effect [2] | Coloration After 2 weeks [3] | Odor After 2 weeks [3] | Coloration After 4 weeks [3] | Odor After 4 weeks [3] | Residual Rate After 2 weeks ([4]; pH7, stored at 50°C) | Residual Rate After 4 weeks ([4]; pH7, stored at 50°C) | Residual Rate After 2 weeks ([4]; pH9, stored at 50°C) | Residual Rate After 4 weeks ([4]; pH9, stored at 50°C) | Hyaluronic acid production-promoting effect [5]
1 | O=C1O[C@H]([C@@H](O)CO)C(O)=C1OCC(O)CO (stereo partly shown) [2-O-glyceryl ascorbic acid, reference compound] | + (<20%) | + (100-140%) |  |  |  |  |  |  |  |  | 
2 | O=C1O[C@H]([C@@H](O)CO)C(OCC(O)CO)=C1O (stereo partly shown) [3-O-glyceryl ascorbic acid, reference compound] | + (<20%) | + (100-140%) |  |  |  |  |  |  |  |  | 
3 | CCCC(=O)OCC(O)C1OC(=O)C2=C1OCCCCO2 (stereo not shown) [synthesis example 9, 6-O-butanoyl-2,3-O-(1,4-butanediyl) ascorbic acid] | ++ (20-40%) | + (100-140%) | ○ (Total score of 10 panelists is 25 or more) | ○ (Total score of 10 panelists is 25 or more) | ○ (Total score of 10 panelists is 25 or more) | Δ | ⊚ (95% or more) | ⊚ (95% or more) | ⊚ (95% or more) | ⊚ (95% or more) | ++ (120%<)
4 | CCCC(=O)OCC(OC(=O)CCC)C1OC(=O)C2=C1OCCCCO2 (stereo not shown) [synthesis example 10, 5,6-O-dibutanoyl-2,3-O-(1,4-butanediyl) ascorbic acid] | + (<20%) | ++ (140%<) | ○ (Total score of 10 panelists is 25 or more) | ○ (Total score of 10 panelists is 25 or more) | ○ (Total score of 10 panelists is 25 or more) | Δ | ⊚ (95% or more) | ⊚ (95% or more) | ⊚ (95% or more) | ⊚ (95% or more) | ++ (120%<)
5 | CCCCCCCCCCCC(=O)OCC(O)C1OC(=O)C2=C1OCCCCO2 (stereo not shown) [synthesis example 13, 6-O-lauroyl-2,3-O-(1,4-butanediyl) ascorbic acid] | + (<20%) |  | ○ (Total score of 10 panelists is 25 or more) | ○ (Total score of 10 panelists is 25 or more) | ○ (Total score of 10 panelists is 25 or more) | Δ | ⊚ (95% or more) | ⊚ (95% or more) | ⊚ (95% or more) | ⊚ (95% or more) | ++ (120%<)
6 | CCCCCCCCCCCC(=O)OCC(OC(=O)CCCCCCCCCCC)C1OC(=O)C2=C1OCCCCO2 (stereo not shown) [synthesis example 14, 5,6-O-dilauroyl-2,3-O-(1,4-butanediyl) ascorbic acid] | + (<20%) |  | ○ (Total score of 10 panelists is 25 or more) | ○ (Total score of 10 panelists is 25 or more) | ○ (Total score of 10 panelists is 25 or more) | Δ | ⊚ (95% or more) | ⊚ (95% or more) | ⊚ (95% or more) | ○ (85% or more, less than 95%) | ++ (120%<)
7 | CC(C)CCCCCCCCCCCCCCC(=O)OC[C@H](O)[C@H]1OC(=O)C2=C1OCCCCO2 [synthesis example 17, 6-O-isostearoyl-2,3-O-(1,4-butanediyl) ascorbic acid] | + (<20%) | ++ (140%<) | ○ (Total score of 10 panelists is 25 or more) | ○ (Total score of 10 panelists is 25 or more) | ○ (Total score of 10 panelists is 25 or more) | Δ | ⊚ (95% or more) | ⊚ (95% or more) | ⊚ (95% or more) | ⊚ (95% or more) | ++ (120%<)
8 | CCCCCCCC(=O)OCC(OC(=O)CCCCCCC)C1OC(=O)C2=C1OCCCO2 (stereo not shown) [synthesis example 23, 5,6-O-dioctanoyl-2,3-O-(1,3-propanediyl) ascorbic acid] | + (<20%) | ++ (140%<) | ○ (Total score of 10 panelists is 25 or more) | ○ (Total score of 10 panelists is 25 or more) | ○ (Total score of 10 panelists is 25 or more) | Δ | ⊚ (95% or more) | ⊚ (95% or more) | ⊚ (95% or more) | ⊚ (95% or more) | + (100-120%)
9 | CCCCCCCCCCCCCCCC(=O)OCC(O)C1OC(=O)C2=C1OCCCCO2 (stereo not shown) [synthetic example 15, 6-O-palmitoyl-2,3-O-(1,4-butanediyl) ascorbic acid] | + (<20%) | ++ (140%<) | ○ (Total score of 10 panelists is 25 or more) | ○ (Total score of 10 panelists is 25 or more) | ○ (Total score of 10 panelists is 25 or more) | Δ | ⊚ (95% or more) | ⊚ (95% or more) | ⊚ (95% or more) | ⊚ (95% or more) | ++ (120%<)
